Where a SMILES comes first, the peptide text is derived from it. Where no end group is shown, it is not given here. [ ]: non-standard residue; d: D form.
Columns and labels:
MRSA strains = assay: MIC, synergistic activity with Ertapenem (4 μg/ml); type: cell-based, S. aureus; details: S. aureus COL with 4 μg/ml Ertapenem (synergistic activity)
Experimental: (§1) Peptides Chain 104, Chain 105, Chain 201, Chain 308, Chain 310 were tested against antibiotic-sensitive strains of S. aureus RN4220 and methicillin resistant strains of S. aureus COL (MRSA). Chain peptides comprising of either L- or D-form amino acids were tested against these bacteria, and the D-form peptides were found have better activity compared to L-form (Table 6). Synergistic activity of chain peptides along with Ertapenem (4 μg/ml) was tested to know whether it will influence the activity against MRSA strains. […] Chain 310 has the best antibacterial activity against the MRSA strains with a MIC of 0.06 & 0.03 μg/ml along with Ertapenem (4 μg/ml) for both forms of L and D-peptides (Table 6).

S. aureus RN4220 = type: cell-based; details: antibiotic sensitive strain S. aureus RN4220
Experimental: (§2) Minimum inhibition concetrations (MICs) were determined against Escherichia coli (ATCC 25922), Staphylococcus aureus (ATCC 25923), Klebsiella pneumoniae (ATCC 10031) and Pseudomonas aeruginosa (ATCC 27853). Also clinical strains of E. coli, K. pneumoniae, E. cloacae, P. aeruginosa, Serratia marcescens, Proteus mirabilis, S. pneumoniae, Acinetobacter baumannii, A. johnsonii and S. aureus were used for MICs assays. Additionally, clinical strains of yeast including Candida albicans, C. glabrata, C. parapsilosis and C. quillermondiae were used. The susceptibility of these microorganisms to Chain peptides were determined using micro broth dilution assay. Colonies of the respective microorganism from Muller Hinton (MH) agar plates incubated overnight were suspended in MH broth media and final concentration of microorganism was adjusted to 5.0×10^5 cfu/ml. An aliquot of 10 μl of each Chain peptide, or gentamicin, tetracycline as reference antibiotics were added in differing concentrations along with 90 μl of bacterial suspension to 96 well polypropylene plates and incubated at 37° C. for 20 to 24 hours. Concentrations of Chain peptides and reference antibiotics ranged from 0.125 to 128 μg/ml and the MICs were recorded as the lowest concentration with no visual growth of bacteria. Similarly, antifungal MICs were tested in Potato dextrose broth.
as §1

C. quillermondiae = assay: MIC, clinical yeast strains; type: cell-based; design: Minimum inhibitory concentration: unit: μg/ml; details: C. quillermondiae clinical yeast strain 1
Experimental: as §2
(§3) Clinical strains of yeasts including Candida albicans, C. glabrata, C. parapsilosis and C. quillermondiae were also tested with the 12 Chain peptides. The minimum inhibitory concentration (MICs) varied between these peptides and are presented in Tables 4a, 4b, 4c and 5a, 5b, 5c. Peptides Chain 105, 201 and 308 are broad spectrum antimicrobials with MICs between 0.5-32 μg/ml against all the bacteria and yeasts tested, except Serratia marcescens and Proteus mirabilis, against which the MICs were between 64-128 μg/ml. Peptide Chain 306 has narrow spectrum activity against E. coli at 1 μg/ml and for the rest of the bacterial strains at >32 μg/ml (FIG. 10c).

[1] = system: clinical strains of Proteus mirabilis; assay: MIC, microdilution, clinical strains; type: cell-based; details: 0.02% BSA, 0.2% acetic acid
Experimental: as §2, §3

[2] = system: clinical strains of E. cloacae; assay: MIC, microdilution, clinical strains; type: cell-based; details: 0.02% BSA, 0.2% acetic acid
Experimental: as §2, §3

[3] = system: clinical strains of S. aureus; assay: MIC, microdilution, clinical strains; type: cell-based; details: 0.02% BSA, 0.2% acetic acid
Experimental: as §2, §3

[4] = system: clinical strains of E. coli; assay: MIC, microdilution, clinical strains; type: cell-based; details: microdilution, Muller Hinton broth-cation adjusted, 0.02% BSA, 0.2% acetic acid
Experimental: as §2, §3

[5] = system: clinical strains of K. pneumoniae; assay: MIC, microdilution, clinical strains; type: cell-based; details: 0.02% BSA, 0.2% acetic acid
Experimental: as §2, §3

[6] = system: clinical strains of S. pneumoniae; assay: MIC, microdilution, clinical strains; type: cell-based; details: 0.02% BSA, 0.2% acetic acid
Experimental: as §2, §3

[7] = system: clinical strains of P. aeruginosa; assay: MIC, microdilution, clinical strains; type: cell-based; details: 0.02% BSA, 0.2% acetic acid
Experimental: as §2, §3

[8] = system: clinical strains of Serratia marcescens; assay: MIC, microdilution, clinical strains; type: cell-based; details: 0.02% BSA, 0.2% acetic acid
Experimental: as §2, §3

C. glabrata = assay: MIC, clinical yeast strains; type: cell-based
Experimental: as §2, §3

C. parapsilosis = assay: MIC, clinical yeast strains; type: cell-based
Experimental: as §2, §3

Candida albicans = assay: MIC, clinical yeast strains; type: cell-based
Experimental: as §2, §3

KWIVWRWRFKR [Compound 201]
Minimum inhibitory concentration (MICs), S. aureus COL + 4 μg/ml Ertapenem (MRSA strains): 0.5 µg/mL | Minimum inhibitory concentration (MICs), S. aureus RN4220 (S. aureus RN4220): 64 µg/mL

RLKWFLLFRKR [Compound 308]
Minimum inhibitory concentration (MICs), S. aureus COL + 4 μg/ml Ertapenem (MRSA strains): 0.5 µg/mL | Minimum inhibitory concentration (MICs), S. aureus RN4220 (S. aureus RN4220): >64 µg/mL

CC(C)C[C@@H](NC(=O)[C@H](N)CCCNC(=N)N)C(=O)N[C@H](CCCCN)C(=O)N[C@H](Cc1c[nH]c2ccccc12)C(=O)N[C@H](Cc1ccccc1)C(=O)N[C@H](CC(C)C)C(=O)N[C@H](CC(C)C)C(=O)N[C@H](Cc1ccccc1)C(=O)N[C@H](CCCNC(=N)N)C(=O)N[C@H](CCCCN)C(=O)N[C@H](CCCNC(=N)N)C(=O)O [308 D] (H-[dR][dL][dK][dW][dF][dL][dL][dF][dR][dK][dR]-OH)
Minimum inhibitory concentration (MICs), S. aureus COL + 4 μg/ml Ertapenem (MRSA strains): 1 µg/mL | Minimum inhibitory concentration (MICs), S. aureus RN4220 (S. aureus RN4220): 4 µg/mL

CC[C@@H](C)[C@@H](NC(=O)[C@@H](CCSC)NC(=O)[C@@H](C)NC(=O)[C@@H](CCCNC(=N)N)NC(=O)[C@@H](Cc1c[nH]c2ccccc12)NC(=O)[C@@H](CCCCN)NC(=O)[C@H](N)CCCNC(=N)N)C(=O)N[C@H](CCCNC(=N)N)C(=O)N[C@H](CC(C)C)C(=O)N[C@H](Cc1c[nH]cn1)C(=O)N[C@H](C)C(=O)N[C@H](CCCCN)C(=O)N[C@H](CCCNC(=N)N)C(=O)N[C@H](CC(C)C)C(=O)N[C@H](CCCNC(=N)N)C(=O)N[C@H](CCCCN)C(=O)O [104 D] (H-[dR][dK][dW][dR][dA][dM][dI][dR][dL][dH][dA][dK][dR][dL][dR][dK]-OH)
Minimum inhibitory concentration (MICs), S. aureus COL + 4 μg/ml Ertapenem (MRSA strains): 4 µg/mL | Minimum inhibitory concentration (MICs), S. aureus RN4220 (S. aureus RN4220): 64 µg/mL

CC(C)C[C@@H](NC(=O)[C@@H](Cc1c[nH]c2ccccc12)NC(=O)[C@@H](Cc1ccccc1)NC(=O)[C@@H](Cc1c[nH]c2ccccc12)NC(=O)[C@@H](CCCCN)NC(=O)[C@@H](CCCNC(=N)N)NC(=O)[C@H](N)Cc1c[nH]c2ccccc12)C(=O)N[C@H](Cc1ccccc1)C(=O)N[C@H](CCCCN)C(=O)N[C@H](CCCCN)C(=O)N[C@H](CCCNC(=N)N)C(=O)O [Chain309D] (H-[dW][dR][dK][dW][dF][dW][dL][dF][dK][dK][dR]-OH)
Minimum inhibitory concentration (C. quillermondiae): 8 | Minimum inhibitory concentration ([1]; Proteus mirabilis strain 1, Muller Hinton broth-cation adjusted): >128 | Minimum inhibitory concentration ([1]; Proteus mirabilis strain 2, Muller Hinton broth-cation adjusted): >128 | Minimum inhibitory concentration ([1]; Proteus mirabilis strain 3, Muller Hinton broth-cation adjusted): >128 | Minimum inhibitory concentration ([1]; Proteus mirabilis strain 4, Muller Hinton broth-cation adjusted): >128 | Minimum inhibitory concentration ([1]; Proteus mirabilis strain 5, Muller Hinton broth-cation adjusted): >128 | Minimum inhibitory concentration ([2]; Enterobacter cloacae strain 1, Muller Hinton broth-cation adjusted): >128 | Minimum inhibitory concentration ([2]; Enterobacter cloacae strain 2, Muller Hinton broth-cation adjusted): 128 | Minimum inhibitory concentration ([2]; Enterobacter cloacae strain 3, Muller Hinton broth-cation adjusted): 64 | Minimum inhibitory concentration ([2]; Enterobacter cloacae strain 4, Muller Hinton broth-cation adjusted): 64 | Minimum inhibitory concentration ([2]; Enterobacter cloacae strain 5, Muller Hinton broth-cation adjusted): 32 | Minimum inhibitory concentration ([3]; Staphylococcus aureus strain 1, Muller Hinton broth-cation adjusted): 8 | Minimum inhibitory concentration ([3]; Staphylococcus aureus strain 2, Muller Hinton broth-cation adjusted): 16 | Minimum inhibitory concentration ([3]; Staphylococcus aureus strain 3, Muller Hinton broth-cation adjusted): 8 | Minimum inhibitory concentration ([3]; Staphylococcus aureus strain 4, Muller Hinton broth-cation adjusted): 8 | Minimum inhibitory concentration ([3]; Staphylococcus aureus strain 5, Muller Hinton broth-cation adjusted): 8 | Minimum inhibitory concentration ([4]; Escherichia coli strain 1): 0.5 | Minimum inhibitory concentration ([4]; Escherichia coli strain 2): 32 | Minimum inhibitory concentration ([4]; Escherichia coli strain 3): 16 | Minimum inhibitory concentration ([4]; Escherichia coli strain 4): 32 | Minimum inhibitory concentration ([4]; Escherichia coli strain 5): 16 | Minimum inhibitory concentration ([5]; Klebsiella pneumoniae strain 1, Muller Hinton broth-cation adjusted): 128 | Minimum inhibitory concentration ([5]; Klebsiella pneumoniae strain 2, Muller Hinton broth-cation adjusted): 32 | Minimum inhibitory concentration ([5]; Klebsiella pneumoniae strain 3, Muller Hinton broth-cation adjusted): >128 | Minimum inhibitory concentration ([5]; Klebsiella pneumoniae strain 4, Muller Hinton broth-cation adjusted): 32 | Minimum inhibitory concentration ([5]; Klebsiella pneumoniae strain 5, Muller Hinton broth-cation adjusted): 128 | Minimum inhibitory concentration ([6]; Streptococcus pneumoniae strain 1, Muller Hinton broth-cation adjusted): 64 | Minimum inhibitory concentration ([6]; Streptococcus pneumoniae strain 2, Muller Hinton broth-cation adjusted): 64 | Minimum inhibitory concentration ([6]; Streptococcus pneumoniae strain 3, Muller Hinton broth-cation adjusted): 64 | Minimum inhibitory concentration ([6]; Streptococcus pneumoniae strain 4, Muller Hinton broth-cation adjusted): 64 | Minimum inhibitory concentration ([6]; Streptococcus pneumoniae strain 5, Muller Hinton broth-cation adjusted): 64 | Minimum inhibitory concentration ([7]; Pseudomonas aeruginosa strain 1, Muller Hinton broth-cation adjusted): 16 | Minimum inhibitory concentration ([7]; Pseudomonas aeruginosa strain 2, Muller Hinton broth-cation adjusted): 32 | Minimum inhibitory concentration ([7]; Pseudomonas aeruginosa strain 3, Muller Hinton broth-cation adjusted): 16 | Minimum inhibitory concentration ([7]; Pseudomonas aeruginosa strain 4, Muller Hinton broth-cation adjusted): 32 | Minimum inhibitory concentration ([7]; Pseudomonas aeruginosa strain 5, Muller Hinton broth-cation adjusted): 8 | Minimum inhibitory concentration ([8]; Serratia marcescens strain 1, Muller Hinton broth-cation adjusted): >128 | Minimum inhibitory concentration ([8]; Serratia marcescens strain 2, Muller Hinton broth-cation adjusted): >128 | Minimum inhibitory concentration ([8]; Serratia marcescens strain 3, Muller Hinton broth-cation adjusted): >128 | Minimum inhibitory concentration ([8]; Serratia marcescens strain 4, Muller Hinton broth-cation adjusted): >128 | Minimum inhibitory concentration ([8]; Serratia marcescens strain 5, Muller Hinton broth-cation adjusted): >128 | Minimum inhibitory concentration (C. glabrata; C. glabrata clinical yeast strain 1): 32 | Minimum inhibitory concentration (C. glabrata; C. glabrata clinical yeast strain 2): 64 | Minimum inhibitory concentration (C. glabrata; C. glabrata clinical yeast strain 3): 4 | Minimum inhibitory concentration (C. glabrata; C. glabrata clinical yeast strain 4): 128 | Minimum inhibitory concentration (C. parapsilosis; C. parapsilosis clinical yeast strain 1): 64 | Minimum inhibitory concentration (C. parapsilosis; C. parapsilosis clinical yeast strain 2): 64 | Minimum inhibitory concentration (C. parapsilosis; C. parapsilosis clinical yeast strain 3): 32 | Minimum inhibitory concentration (C. parapsilosis; C. parapsilosis clinical yeast strain 4): 16 | Minimum inhibitory concentration (Candida albicans; Candida albicans clinical yeast strain 1): 32 | Minimum inhibitory concentration (Candida albicans; Candida albicans clinical yeast strain 2): 32 | Minimum inhibitory concentration (Candida albicans; Candida albicans clinical yeast strain 3): 16 | Minimum inhibitory concentration (Candida albicans; Candida albicans clinical yeast strain 4): 16 | Minimum inhibitory concentration (Candida albicans; Candida albicans clinical yeast strain 5): 32

Reference: US10457710B2, “Antimicrobial peptides, their variants and uses” (priority 2015, dated 2019)
